Assay results: paper PMC5218480 (PLoS ONE, 2017)

Tested on: MV-4-11 cells
Assay: Gene expression microarray analysis (Affymetrix PrimeView) and GSEA
Type: cell-based, human
Design: RFU PODN (11730768_x_at) / Fold change /veh PODN (11730768_x_at) / RFU LINC00158 (11744669_a_at) / Fold change /veh LINC00158 (11744669_a_at) / RFU DUSP10 (11751237_a_at) / Fold change /veh DUSP10 (11751237_a_at) / RFU ID3 (11757404_x_at) / Fold change /veh ID3 (11757404_x_at) / RFU PLEKHG5 (11737974_s_at) / Fold change /veh PLEKHG5 (11737974_s_at) / RFU LRRC4B (11730491_at) / Fold change /veh LRRC4B (11730491_at) / RFU GIMAP4 (11747438_a_at) / Fold change /veh GIMAP4 (11747438_a_at) / RFU KRT8 (11758183_x_at) / Fold change /veh KRT8 (11758183_x_at) / RFU CNN1 (11734310_a_at) / Fold change /veh CNN1 (11734310_a_at) / RFU VPS37D (11726825_at) / Fold change /veh VPS37D (11726825_at) / RFU C10orf10 (11716522_x_at) / Fold change /veh C10orf10 (11716522_x_at) / RFU KIR2DL2 /// KIR2DL4 /// KIR2DL5A /// KIR2DL5B /// KIR2DS1 /// KIR2DS2 /// KIR2DS3 /// KIR2DS4 /// KIR3DL3 /// KIR3DL3 /// KIR3DS1 (11738374_at) / Fold change /veh KIR2DL2 /// KIR2DL4 /// KIR2DL5A /// KIR2DL5B /// KIR2DS1 /// KIR2DS2 /// KIR2DS3 /// KIR2DS4 /// KIR3DL3 /// KIR3DL3 /// KIR3DS1 (11738374_at) / RFU C1QL1 (11718748_at) / Fold change /veh C1QL1 (11718748_at) / RFU TMPRSS4 (11747572_a_at) / Fold change /veh TMPRSS4 (11747572_a_at) / RFU HAMP (11756126_x_at) / Fold change /veh HAMP (11756126_x_at) / RFU RNFT2 (11725882_a_at) / Fold change /veh RNFT2 (11725882_a_at) / RFU NR4A2 (11747474_a_at) / Fold change /veh NR4A2 (11747474_a_at) / RFU ABCC12 (11746883_a_at) / Fold change /veh ABCC12 (11746883_a_at) / RFU TMEM136 (11760407_x_at) / Fold change /veh TMEM136 (11760407_x_at) / RFU CLDN22 /// WWC2 (11732394_at) / Fold change /veh CLDN22 /// WWC2 (11732394_at) / RFU HLA-DPB1 (11760878_x_at) / Fold change /veh HLA-DPB1 (11760878_x_at) / RFU SPINT1 (11716480_a_at) / Fold change /veh SPINT1 (11716480_a_at) / RFU GAP43 (11754022_s_at) / Fold change /veh GAP43 (11754022_s_at) / RFU A4GNT (11735810_at) / Fold change /veh A4GNT (11735810_at) / RFU PRB3 (11715151_x_at) / Fold change /veh PRB3 (11715151_x_at) / RFU TUBB4B (11761932_at) / Fold change /veh TUBB4B (11761932_at) / RFU CAPN14 (11732068_a_at) / Fold change /veh CAPN14 (11732068_a_at) / RFU TMCC2 (11721928_a_at) / Fold change /veh TMCC2 (11721928_a_at) / RFU IRGQ (11745062_a_at) / Fold change /veh IRGQ (11745062_a_at) / RFU FAM174B (11720279_a_at) / Fold change /veh FAM174B (11720279_a_at) / RFU TMPRSS4 (11748680_a_at) / Fold change /veh TMPRSS4 (11748680_a_at) / RFU FAM212B (11763350_a_at) / Fold change /veh FAM212B (11763350_a_at) / RFU PLEKHG5 (11743358_a_at) / Fold change /veh PLEKHG5 (11743358_a_at) / RFU ZSCAN30 (11745921_a_at) / Fold change /veh ZSCAN30 (11745921_a_at) / RFU CMKLR1 (11741424_a_at) / Fold change /veh CMKLR1 (11741424_a_at) / RFU LOC101060620 /// MAPK8IP1 (11723275_at) / Fold change /veh LOC101060620 /// MAPK8IP1 (11723275_at) / RFU SPTSSB (11747773_x_at) / Fold change /veh SPTSSB (11747773_x_at) / RFU PRSS12 (11739890_at) / Fold change /veh PRSS12 (11739890_at) / RFU BIN1 (11741810_x_at) / Fold change /veh BIN1 (11741810_x_at) / RFU WNT11 (11732464_a_at) / Fold change /veh WNT11 (11732464_a_at) / RFU C10orf10 (11716521_a_at) / Fold change /veh C10orf10 (11716521_a_at) / RFU C5orf56 (11738089_at) / Fold change /veh C5orf56 (11738089_at) / RFU CYB561 (11721691_x_at) / Fold change /veh CYB561 (11721691_x_at) / RFU ANKRD19P (11752326_a_at) / Fold change /veh ANKRD19P (11752326_a_at) / RFU OR2T12 /// OR2T33 /// OR2T8 (11738714_s_at) / Fold change /veh OR2T12 /// OR2T33 /// OR2T8 (11738714_s_at) / RFU VCAN (11748164_a_at) / Fold change /veh VCAN (11748164_a_at) / RFU JSRP1 (11732532_at) / Fold change /veh JSRP1 (11732532_at) / RFU KRTAP10-11 (11738290_x_at) / Fold change /veh KRTAP10-11 (11738290_x_at) / RFU MYO3A (11730013_a_at) / Fold change /veh MYO3A (11730013_a_at) / RFU EBF3 (11725865_a_at) / Fold change /veh EBF3 (11725865_a_at) / RFU CAMK2N1 (11719241_x_at) / Fold change /veh CAMK2N1 (11719241_x_at) / RFU C5orf56 (11738088_a_at) / Fold change /veh C5orf56 (11738088_a_at) / RFU OLFML3 (11715873_a_at) / Fold change /veh OLFML3 (11715873_a_at) / RFU LOC100653217 /// NTM (11731650_a_at) / Fold change /veh LOC100653217 /// NTM (11731650_a_at) / RFU MAPK11 (11762145_a_at) / Fold change /veh MAPK11 (11762145_a_at) / RFU FIZ1 (11724087_x_at) / Fold change /veh FIZ1 (11724087_x_at) / RFU OASL (11726364_x_at) / Fold change /veh OASL (11726364_x_at) / RFU SOX15 (11748057_x_at) / Fold change /veh SOX15 (11748057_x_at) / RFU CD79A (11719716_a_at) / Fold change /veh CD79A (11719716_a_at) / RFU HIST1H1D (11736915_at) / Fold change /veh HIST1H1D (11736915_at) / RFU CASKIN2 (11723855_a_at) / Fold change /veh CASKIN2 (11723855_a_at) / RFU LOC730098 (11760151_x_at) / Fold change /veh LOC730098 (11760151_x_at) / RFU OR4N2 (11742367_at) / Fold change /veh OR4N2 (11742367_at) / RFU PRRT2 (11749266_a_at) / Fold change /veh PRRT2 (11749266_a_at) / RFU SNX32 (11753110_a_at) / Fold change /veh SNX32 (11753110_a_at) / RFU CDHR5 (11726645_a_at) / Fold change /veh CDHR5 (11726645_a_at) / RFU RCAN1 (11760418_a_at) / Fold change /veh RCAN1 (11760418_a_at) / RFU FAM167A (11723789_a_at) / Fold change /veh FAM167A (11723789_a_at) / RFU FAM26E (11764081_at) / Fold change /veh FAM26E (11764081_at) / RFU ISYNA1 (11749810_s_at) / Fold change /veh ISYNA1 (11749810_s_at) / RFU ACY1 (11761880_at) / Fold change /veh ACY1 (11761880_at) / RFU 11764098_at / Fold change /veh 11764098_at / RFU SAMD14 (11745864_x_at) / Fold change /veh SAMD14 (11745864_x_at) / RFU NPB (11741838_a_at) / Fold change /veh NPB (11741838_a_at) / RFU TMPRSS6 (11731388_a_at) / Fold change /veh TMPRSS6 (11731388_a_at) / RFU KRTAP10-2 (11738614_at) / Fold change /veh KRTAP10-2 (11738614_at) / RFU ARHGAP8 /// PRR5-ARHGAP8 (11727945_x_at) / Fold change /veh ARHGAP8 /// PRR5-ARHGAP8 (11727945_x_at) / RFU KRTAP5-7 /// NADSYN1 (11734609_at) / Fold change /veh KRTAP5-7 /// NADSYN1 (11734609_at) / RFU RASL12 (11751679_a_at) / Fold change /veh RASL12 (11751679_a_at) / RFU CDKN2B (11736163_a_at) / Fold change /veh CDKN2B (11736163_a_at) / RFU PRF1 (11729649_at) / Fold change /veh PRF1 (11729649_at) / RFU, ZNF638 /// ZNF638-IT1 / Fold change vs veh, ZNF638 /// ZNF638-IT1 / RFU, PANK3 / Fold change vs veh, PANK3 / RFU, SH3YL1 / Fold change vs veh, SH3YL1 / RFU, ZEB2 / Fold change vs veh, ZEB2 / RFU, NRIP1 / Fold change vs veh, NRIP1 / RFU, PTTG1IP / Fold change vs veh, PTTG1IP / RFU, CAPN2 / Fold change vs veh, CAPN2 / RFU, MED14 / Fold change vs veh, MED14 / RFU, SNORA58 / Fold change vs veh, SNORA58 / RFU, C1orf63 / Fold change vs veh, C1orf63 / RFU, LRRFIP1 / Fold change vs veh, LRRFIP1 / RFU, NDUFAF7 / Fold change vs veh, NDUFAF7 / RFU, SLC12A2 / Fold change vs veh, SLC12A2 / RFU, IBTK / Fold change vs veh, IBTK / RFU, ESF1 / Fold change vs veh, ESF1 / Fold change vs veh, TMEM50B / RFU, TAOK1 / Fold change vs veh, TAOK1 / RFU, ACBD3 / Fold change vs veh, ACBD3 / RFU, TMA16 / Fold change vs veh, TMA16 / RFU, RWDD3 / Fold change vs veh, RWDD3 / RFU, BCAT1 / Fold change vs veh, BCAT1 / RFU, EDEM3 / Fold change vs veh, EDEM3 / RFU, TMEM33 / Fold change vs veh, TMEM33 / RFU, WDR75 / Fold change vs veh, WDR75 / RFU, AHCTF1 / Fold change vs veh, AHCTF1 / RFU, TFRC / Fold change vs veh, TFRC / RFU, ZDHHC17 / Fold change vs veh, ZDHHC17 / RFU, NOM1 / Fold change vs veh, NOM1 / RFU, ARL8B / Fold change vs veh, ARL8B / RFU, ZBTB11 / Fold change vs veh, ZBTB11 / RFU, TAMM41 / Fold change vs veh, TAMM41 / RFU, KIAA1704 /// LOC100996395 / Fold change vs veh, KIAA1704 /// LOC100996395 / RFU, ING1 / Fold change vs veh, ING1 / RFU, TRMT61B / Fold change vs veh, TRMT61B / RFU, FUBP3 / Fold change vs veh, FUBP3 / RFU, TP53 / Fold change vs veh, TP53 / RFU, TNKS2 / Fold change vs veh, TNKS2 / RFU, ZFP14 / Fold change vs veh, ZFP14 / RFU, ACTR2 / Fold change vs veh, ACTR2 / RFU, PPP3R1 / Fold change vs veh, PPP3R1 / RFU, PIK3R1 / Fold change vs veh, PIK3R1 / RFU, HNRNPA1 / Fold change vs veh, HNRNPA1 / RFU, RNF170 / Fold change vs veh, RNF170 / RFU, ZNF28 / Fold change vs veh, ZNF28 / RFU, RNGTT / Fold change vs veh, RNGTT / RFU, OGT / Fold change vs veh, OGT / RFU, BRD1 / Fold change vs veh, BRD1 / RFU, MARS / Fold change vs veh, MARS / RFU, ZNF655 / Fold change vs veh, ZNF655 / RFU, FAHD1 / Fold change vs veh, FAHD1 / RFU, BDP1 / Fold change vs veh, BDP1 / RFU, LRRCC1 / Fold change vs veh, LRRCC1 / RFU, ARID1A / Fold change vs veh, ARID1A / RFU, ZNF146 / Fold change vs veh, ZNF146 / RFU, ZNF330 / Fold change vs veh, ZNF330 / RFU, GPN3 / Fold change vs veh, GPN3 / RFU, C9orf123 / Fold change vs veh, C9orf123 / RFU, N4BP2L2 / Fold change vs veh, N4BP2L2 / RFU, ARFIP1 / Fold change vs veh, ARFIP1 / RFU, FAM179B / Fold change vs veh, FAM179B / RFU, BCL10 / Fold change vs veh, BCL10 / RFU, UHRF1BP1L / Fold change vs veh, UHRF1BP1L / RFU, BET1 / Fold change vs veh, BET1 / RFU, CNOT2 / Fold change vs veh, CNOT2 / RFU, ZNF268 / Fold change vs veh, ZNF268 / Fold change vs veh, ZNF507 / RFU, DGCR2 / Fold change vs veh, DGCR2 / RFU, WDSUB1 / Fold change vs veh, WDSUB1 / Fold change vs veh, HSP90B1 /// MIR3652 / RFU, ADSS / Fold change vs veh, ADSS / RFU, GK / Fold change vs veh, GK / RFU, ZNF148 / Fold change vs veh, ZNF148 / RFU, TAF9 / Fold change vs veh, TAF9 / RFU, SLC1A5 / Fold change vs veh, SLC1A5 / RFU, SLMO2 / Fold change vs veh, SLMO2 / RFU, ABCC4 / Fold change vs veh, ABCC4 / RFU, LOC101060439 /// RAP1B / Fold change vs veh, LOC101060439 /// RAP1B / RFU, RFX7 / Fold change vs veh, RFX7 / RFU, GTPBP10 / Fold change vs veh, GTPBP10 / RFU, CNEP1R1 / Fold change vs veh, CNEP1R1 / RFU, BIVM-ERCC5 /// ERCC5 / Fold change vs veh, BIVM-ERCC5 /// ERCC5 / RFU, ILF3 / Fold change vs veh, ILF3 / RFU 11762660_at / Fold change /veh 11762660_at / RFU VCAN (11757783_s_at) / Fold change /veh VCAN (11757783_s_at) / RFU DDX43 (11728927_at) / Fold change /veh DDX43 (11728927_at) / RFU KRT8 (11758188_x_at) / Fold change /veh KRT8 (11758188_x_at) / RFU NKD1 (11759106_at) / Fold change /veh NKD1 (11759106_at) / RFU SRD5A1 (11742802_a_at) / Fold change /veh SRD5A1 (11742802_a_at) / RFU TPSAB1 /// TPSB2 (11721975_s_at) / Fold change /veh TPSAB1 /// TPSB2 (11721975_s_at) / RFU GSTM3 (11746129_a_at) / Fold change /veh GSTM3 (11746129_a_at) / RFU IL23R (11737362_x_at) / Fold change /veh IL23R (11737362_x_at) / RFU TMEM51 (11727254_a_at) / Fold change /veh TMEM51 (11727254_a_at) / RFU PIWIL2 (11732686_x_at) / Fold change /veh PIWIL2 (11732686_x_at) / RFU ORM1 (11744905_x_at) / Fold change /veh ORM1 (11744905_x_at) / RFU CCDC152 (11743942_at) / Fold change /veh CCDC152 (11743942_at) / RFU ECM1 (11717891_a_at) / Fold change /veh ECM1 (11717891_a_at) / RFU IL23R (11748794_a_at) / Fold change /veh IL23R (11748794_a_at) / RFU TNFAIP8L3 (11732012_x_at) / Fold change /veh TNFAIP8L3 (11732012_x_at) / RFU MBOAT4 (11741988_at) / Fold change /veh MBOAT4 (11741988_at) / RFU 11764193_at / Fold change /veh 11764193_at / RFU TMEM53 (11763286_at) / Fold change /veh TMEM53 (11763286_at) / RFU MAGEB2 (11727129_at) / Fold change /veh MAGEB2 (11727129_at) / RFU TMEM200A (11744735_a_at) / Fold change /veh TMEM200A (11744735_a_at) / RFU CCDC152 (11751479_a_at) / Fold change /veh CCDC152 (11751479_a_at) / RFU FAM211A (11726209_a_at) / Fold change /veh FAM211A (11726209_a_at) / RFU RGS16 (11746705_a_at) / Fold change /veh RGS16 (11746705_a_at) / RFU VCAN (11755009_s_at) / Fold change /veh VCAN (11755009_s_at) / RFU RHOB (11743442_s_at) / Fold change /veh RHOB (11743442_s_at) / RFU RGS16 (11720943_a_at) / Fold change /veh RGS16 (11720943_a_at) / RFU RGS16 (11720944_at) / Fold change /veh RGS16 (11720944_at) / RFU, VPS4B / Fold change vs veh, VPS4B / RFU, CREB1 / Fold change vs veh, CREB1 / RFU, DNAJC13 / Fold change vs veh, DNAJC13 / RFU, GNAQ / Fold change vs veh, GNAQ / RFU, CDK5R1 / Fold change vs veh, CDK5R1 / RFU, ZRANB3 / Fold change vs veh, ZRANB3 / RFU, CUL4A / Fold change vs veh, CUL4A / RFU, CCNY / Fold change vs veh, CCNY / RFU, UFL1 / Fold change vs veh, UFL1 / RFU, COG3 / Fold change vs veh, COG3 / RFU, DIAPH2 / Fold change vs veh, DIAPH2 / RFU, SKA2 / Fold change vs veh, SKA2 / RFU, AFF3 / Fold change vs veh, AFF3 / RFU, LMF1 / Fold change vs veh, LMF1 / RFU, IPO11 / Fold change vs veh, IPO11 / RFU, DFFB / Fold change vs veh, DFFB / RFU, FOXP1 / Fold change vs veh, FOXP1 / RFU, CARD8 / Fold change vs veh, CARD8 / RFU, STRN3 / Fold change vs veh, STRN3 / RFU, ADK / Fold change vs veh, ADK / RFU, RASSF2 / Fold change vs veh, RASSF2 / RFU, WIPF1 / Fold change vs veh, WIPF1 / RFU, LARP1B / Fold change vs veh, LARP1B / RFU, RASA1 / Fold change vs veh, RASA1 / RFU, RB1 / Fold change vs veh, RB1 / RFU, PPFIA1 / Fold change vs veh, PPFIA1 / RFU, MAT2A / Fold change vs veh, MAT2A / RFU, CCT5 / Fold change vs veh, CCT5 / RFU, WDR92 / Fold change vs veh, WDR92 / RFU, CUX1 / Fold change vs veh, CUX1 / RFU, TTC7A / Fold change vs veh, TTC7A / RFU, TMEM135 / Fold change vs veh, TMEM135 / RFU, DEPTOR / Fold change vs veh, DEPTOR / RFU, CPM / Fold change vs veh, CPM / RFU, DNAJB6 / Fold change vs veh, DNAJB6 / RFU, CACNA2D3 / Fold change vs veh, CACNA2D3 / RFU, DTX4 / Fold change vs veh, DTX4 / RFU, TFCP2 / Fold change vs veh, TFCP2 / RFU, GMCL1 /// GMCL1P1 / Fold change vs veh, GMCL1 /// GMCL1P1 / RFU, AEBP2 / Fold change vs veh, AEBP2 / RFU, SNHG1 /// SNORD22 /// SNORD25 /// SNORD26 /// SNORD27 /// SNORD28 /// SNORD29 /// SNORD31 / Fold change vs veh, SNHG1 /// SNORD22 /// SNORD25 /// SNORD26 /// SNORD27 /// SNORD28 /// SNORD29 /// SNORD31 / Fold change (Aza/veh), C12orf56 (ProbeSet 11735607_a_at) / Fold change (ACY-1035/veh), C12orf56 (ProbeSet 11735607_a_at) / Fold change (Aza/veh), FGFR1OP (ProbeSet 11751329_s_at) / Fold change (ACY-1035/veh), FGFR1OP (ProbeSet 11751329_s_at) / Fold change (Aza/veh), VPS36 (ProbeSet 11739960_a_at) / Fold change (ACY-1035/veh), VPS36 (ProbeSet 11739960_a_at) / RFU SYPL1 (11715823_x_at) / Fold change /veh SYPL1 (11715823_x_at) / RFU IGFBP7 (11715501_s_at) / Fold change /veh IGFBP7 (11715501_s_at) / RFU REEP3 (11722064_at) / Fold change /veh REEP3 (11722064_at) / RFU IGLL1 (11728026_x_at) / Fold change /veh IGLL1 (11728026_x_at): dose or concentration left out as unconfirmed
Details: ProbeSet 11754362_a_at; LIST D

**Q.** `Nc1ccc(-c2cccs2)cc1NC(=O)c1ccc2c(c1)cc(C1CC1)n2CCN1CCOCC1` [ACY-1035] was tested. Which “Fold change vs veh, TTC7A” value did it give?
**A.** 0.87
